pIC50: −log10 of the molar value.
Experiments:
MLLT1 = biological target: T1, MLLT1 (Homo sapiens, UniProt Q03111); test: MLLT1 degradation assay in MV4-11 cells (JESS chemiluminescent detection), three concentrations, 24 h; format: cell-based; details: with respect to DMSO control
T1 construct: host or cells: MV4-11
T1 sequence (Q03111 1-559): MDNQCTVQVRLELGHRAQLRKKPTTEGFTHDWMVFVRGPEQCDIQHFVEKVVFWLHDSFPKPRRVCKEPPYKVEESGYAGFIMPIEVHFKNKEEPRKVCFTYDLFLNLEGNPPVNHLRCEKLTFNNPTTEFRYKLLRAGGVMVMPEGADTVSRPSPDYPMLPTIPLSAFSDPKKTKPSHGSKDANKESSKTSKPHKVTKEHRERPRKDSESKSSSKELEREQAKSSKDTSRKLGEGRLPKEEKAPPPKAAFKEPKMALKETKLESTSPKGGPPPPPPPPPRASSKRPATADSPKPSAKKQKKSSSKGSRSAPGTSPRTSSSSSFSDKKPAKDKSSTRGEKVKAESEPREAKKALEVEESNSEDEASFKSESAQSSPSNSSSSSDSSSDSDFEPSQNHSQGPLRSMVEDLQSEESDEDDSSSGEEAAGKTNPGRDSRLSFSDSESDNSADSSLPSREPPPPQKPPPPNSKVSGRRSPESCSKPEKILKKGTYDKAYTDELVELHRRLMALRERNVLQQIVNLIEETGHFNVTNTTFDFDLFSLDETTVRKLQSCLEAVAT
In short: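 Read-out is % MLLT1 degradation versus DMSO, from band peak areas on a JESS chemiluminescent system. Cells (MV4-11) were exposed for 24 h at 37° C to three compound levels, 10, 100 and 1000 nM, in 0.1% DMSO.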

MV4-11 cells = test: MV4-11 cellular proliferative assay, Assay Format B (CTG 2.0, 168 h); format: cell-based; details: Homo sapiens, 168 h (7 days), CTG 2.0, read-out: IC50 (MV4-11 cellular proliferative assay, Assay format B)
Procedure: MV4-11 cells at a confluency of ~50-80% was used for cell growth assay. 600 cells/well in a 384-well opaque cell culture plate (6007680; Perkin Elmer) were seeded in 40 μL of complete medium (IMDM+10% FBS+1X Penicillin-Streptomycin). Cells were incubated overnight at 37° C., 5% CO2. 10 mM DMSO stocks were prepared, cells were treated with 10 concentrations of test compounds starting from 1 uM or 100 nM, 3-fold dilution in 10 uL (5×concentration) of complete medium. Final DMSO concentration was 0.3%. Culture plates were centrifuged at 40×g, 30s. Cells were incubated with compounds for 168 h (7 days). After 7 days, 20 uL CTG 2.0 reagent (G9242; Promega) was added per well and luminescence reading was taken in Envision Xcite 2105 multimode plate reader. Data was analyzed in GraphPad Prism 10.0 and data was shown as % viability with respect to DMSO control and dose-response curves were generated using four parameter logistic regression. Assay quality was determined by z-factor calculation using positive and negative controls.

Row | SMILES | MLLT1% Degradation @ 0.01 μM (MLLT1) | MLLT1% Degradation @ 0.1 μM (MLLT1) | MLLT1% Degradation @ 1 μM (MLLT1) | pIC50 (MV4-11 cells)
1 | CN1CCC[C@@H]1c1cc2cnc(NC(=O)c3ccc(OCCN4CCC(c5cccc6c5CN(C5CCC(=O)NC5=O)C6=O)CC4)cc3)cc2[nH]1 (stereo partly drawn) [Example 141, 4-(2-(4-(2-(2,6-dioxopiperidin-3-yl)-1-oxoisoindolin-4-yl)piperidin-1-yl)ethoxy)-N-(2-((R)-1-methylpyrrolidin-2-yl)-1H-pyrrolo[3,2-c]pyridin-6-yl)benzamide] | A (Category A: A ≥ 75% degradation) | A (Category A: A ≥ 75% degradation) | A (Category A: A ≥ 75% degradation) | ≥ 7.00
2 | CN1CCC[C@@H]1c1cc2cnc(NC(=O)c3ccc(CCCCC#Cc4cccc5c4CN([C@@H]4CCC(=O)NC4=O)C5=O)cc3)cc2[nH]1 (relative stereo) [Example 105, 4-(6-(2-((rel-R)-2,6-dioxopiperidin-3-yl)-1-oxoisoindolin-4-yl)hex-5-yn-1-yl)-N-(2-((R)-1-methylpyrrolidin-2-yl)-1H-pyrrolo[3,2-c]pyridin-6-yl)benzamide] | – | – | – | ≥ 7.00
3 | CN1CCC[C@@H]1c1cc2cnc(NC(=O)c3ccc(CCCCC#Cc4cccc5c4CN([C@H]4CCC(=O)NC4=O)C5=O)cc3)cc2[nH]1 (relative stereo) [Example 104, 4-(6-(2-((rel-S)-2,6-dioxopiperidin-3-yl)-1-oxoisoindolin-4-yl)hex-5-yn-1-yl)-N-(2-((R)-1-methylpyrrolidin-2-yl)-1H-pyrrolo[3,2-c]pyridin-6-yl)benzamide] | – | – | – | ≥ 7.00
4 | CN1CCC[C@@H]1c1cc2cnc(NC(=O)c3ccc(OCC4CCN(c5cccc6c5CN(C5CCC(=O)NC5=O)C6=O)CC4)cc3F)cc2[nH]1 (stereo partly drawn) [Example 214, 4-((1-(2-(2,6-dioxopiperidin-3-yl)-1-oxoisoindolin-4-yl)piperidin-4-yl)methoxy)-2-fluoro-N-(2-((R)-1-methylpyrrolidin-2-yl)-1H-pyrrolo[3,2-c]pyridin-6-yl)benzamide] | A (Category A: A ≥ 75% degradation) | A (Category A: A ≥ 75% degradation) | A (Category A: A ≥ 75% degradation) | –
5 | CN1CCC[C@@H]1c1cc2cnc(NC(=O)c3ccc(OCCC4CCN(c5cccc6c5CN(C5CCC(=O)NC5=O)C6=O)CC4)cc3)cc2[nH]1 (stereo in doubt) [Example 80, 4-(2-(1-(2-((rel-S)-2,6-dioxopiperidin-3-yl)-1-oxoisoindolin-4-yl)piperidin-4-yl)ethoxy)-N-(2-((R)-1-methylpyrrolidin-2-yl)-1H-pyrrolo[3,2-c]pyridin-6-yl)benzamide] | A (Category A: A ≥ 75% degradation) | A (Category A: A ≥ 75% degradation) | A (Category A: A ≥ 75% degradation) | –
6 | CN1CCC[C@@H]1c1cc2cnc(NC(=O)c3ccc(N4CCN(C(=O)CCC5CCN(c6cccc7c6CN(C6CCC(=O)NC6=O)C7=O)CC5)CC4)cc3)cc2[nH]1 (stereo partly drawn) [Example 189, 4-(4-(3-(1-(2-(2,6-dioxopiperidin-3-yl)-1-oxoisoindolin-4-yl)piperidin-4-yl)propanoyl)piperazin-1-yl)-N-(2-((R)-1-methylpyrrolidin-2-yl)-1H-pyrrolo[3,2-c]pyridin-6-yl)benzamide] | B (Category B: 50% ≤ B < 75% degradation) | B (Category B: 50% ≤ B < 75% degradation) | C (Category C: 25% ≤ C < 50% degradation) | –
7 | CN1CCC[C@@H]1c1cc2cnc(NC(=O)c3ccc(CCCC4CCN(c5cccc6c5C(=O)N(C5CCC(=O)NC5=O)C6=O)CC4)cc3)cc2[nH]1 (stereo partly drawn) [Example 128, 4-(3-(1-(2-(2,6-dioxopiperidin-3-yl)-1,3-dioxoisoindolin-4-yl)piperidin-4-yl)propyl)-N-(2-((R)-1-methylpyrrolidin-2-yl)-1H-pyrrolo[3,2-c]pyridin-6-yl)benzamide] | C (Category C: 25% ≤ C < 50% degradation) | A (Category A: A ≥ 75% degradation) | A (Category A: A ≥ 75% degradation) | –
8 | CN1CCC[C@@H]1c1cc2cnc(NC(=O)CCCCCCNc3ccc4c(c3)C(=O)N(C3CCC(=O)NC3=O)C4=O)cc2[nH]1 (stereo partly drawn) [Example 27, 7-{[2-(2,6-dioxopiperidin-3-yl)-1,3-dioxoisoindol-5-yl]amino}-N-{2-[(2R)-1-methylpyrrolidin-2-yl]-1H-pyrrolo[3,2-c]pyridin-6-yl}heptanamide] | C (Category C: 25% ≤ C < 50% degradation) | C (Category C: 25% ≤ C < 50% degradation) | B (Category B: 50% ≤ B < 75% degradation) | –
9 | CN1CCC[C@@H]1c1cc2cnc(NC(=O)c3ccc(OCCC4CCN(c5ccc(C(=O)N[C@H]6CCC(=O)NC6=O)c(F)c5)CC4)cc3F)cc2[nH]1 [Example 215, N—((S)-2,6-dioxopiperidin-3-yl)-2-fluoro-4-(4-(2-(3-fluoro-4-((2-((R)-1-methylpyrrolidin-2-yl)-1H-pyrrolo[3,2-c]pyridin-6-yl)carbamoyl)phenoxy)ethyl)piperidin-1-yl)benzamide] | D (Category D: D < 25% degradation) | C (Category C: 25% ≤ C < 50% degradation) | C (Category C: 25% ≤ C < 50% degradation) | –
10 | CN1CCC[C@@H]1c1cc2cnc(NC(=O)c3ccc(N4CCN(CC5CCN(c6ccc7c(c6)CN(C6CCC(=O)NC6=O)C7=O)CC5)CC4)cc3)cc2[nH]1 (stereo partly drawn) [Example 222, 4-(4-((1-(2-(2,6-dioxopiperidin-3-yl)-1-oxoisoindolin-5-yl)piperidin-4-yl)methyl)piperazin-1-yl)-N-(2-((R)-1-methylpyrrolidin-2-yl)-1H-pyrrolo[3,2-c]pyridin-6-yl)benzamide] | C (Category C: 25% ≤ C < 50% degradation) | B (Category B: 50% ≤ B < 75% degradation) | B (Category B: 50% ≤ B < 75% degradation) | –
11 | CN1CCC[C@@H]1c1cc2cnc(NC(=O)c3ccc(N4CCC(OC5CCN(c6ccc7c(c6)CN(C6CCC(=O)NC6=O)C7=O)CC5)CC4)nc3)cc2[nH]1 (stereo partly drawn) [Example 139, 6-(4-((1-(2-(2,6-dioxopiperidin-3-yl)-1-oxoisoindolin-5-yl)piperidin-4-yl)oxy)piperidin-1-yl)-N-(2-((R)-1-methylpyrrolidin-2-yl)-1H-pyrrolo[3,2-c]pyridin-6-yl)nicotinamide] | B (Category B: 50% ≤ B < 75% degradation) | B (Category B: 50% ≤ B < 75% degradation) | B (Category B: 50% ≤ B < 75% degradation) | –
12 | CCN1CCC[C@@H]1c1cc2cnc(NC(=O)c3ccc(CCCCC#Cc4cccc5c4CN(C4CCC(=O)NC4=O)C5=O)nc3)cc2[nH]1 (stereo partly drawn) [Example 74, 6-(6-(2-(2,6-dioxopiperidin-3-yl)-1-oxoisoindolin-4-yl)hex-5-yn-1-yl)-N-(2-((R)-1-ethylpyrrolidin-2-yl)-1H-pyrrolo[3,2-c]pyridin-6-yl) nicotinamide] | B (Category B: 50% ≤ B < 75% degradation) | B (Category B: 50% ≤ B < 75% degradation) | B (Category B: 50% ≤ B < 75% degradation) | –

From patent US20260191968A1, “PROTAC DEGRADERS OF MLLT1 AND/OR MLLT3” (DARK BLUE THERAPEUTICS LTD, priority 2024, published 2026)
